Assay results taken from patent US9884868B2, “TGF-beta inhibitors” (Rigel Pharmaceuticals, Inc., priority 2015, dated 2018).

Target: HIS-TGF-βR1 T204D (Homo sapiens (Human), UniProt P36897, T204D)
Assay: HTRF probe displacement assay with HIS-TGF-βR1 T204D
Conditions: read-out: TGFbr1 IC50; HTRF probe displacement, 1 nM HIS-TGF-βR1 T204D, 1 hour at room temperature

Sequence of HIS-TGF-βR1 T204D (P36897 34-503 T204D): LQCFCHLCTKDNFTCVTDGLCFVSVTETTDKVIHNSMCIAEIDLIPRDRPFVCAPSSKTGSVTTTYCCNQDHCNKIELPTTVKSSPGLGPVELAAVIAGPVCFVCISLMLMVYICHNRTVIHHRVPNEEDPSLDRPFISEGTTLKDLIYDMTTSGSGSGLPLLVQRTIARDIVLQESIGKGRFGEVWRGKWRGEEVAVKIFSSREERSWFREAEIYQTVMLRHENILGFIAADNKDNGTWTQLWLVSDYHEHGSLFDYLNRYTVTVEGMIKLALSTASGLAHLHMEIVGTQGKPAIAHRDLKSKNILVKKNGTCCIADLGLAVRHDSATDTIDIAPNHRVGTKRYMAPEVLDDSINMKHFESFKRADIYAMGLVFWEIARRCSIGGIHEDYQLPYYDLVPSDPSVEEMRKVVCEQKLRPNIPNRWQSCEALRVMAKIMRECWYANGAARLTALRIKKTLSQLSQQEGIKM

Row | Compound | IC50 [nM]
1 | N#Cc1cnc2ccc(-c3c(-c4cc(Cl)c(F)cc4F)ncn3CC(F)F)cn12 [229′, 6-(4-(5-chloro-2,4-difluorophenyl)-1-(2,2-difluoroethyl)-1H-imidazol-5-yl)imidazo[1,2-a]pyridine-3-carbonitrile] | 8.6
2 | NC(=O)c1cnc2ccc(-c3c(-c4ccc(F)cc4)ncn3CC(F)F)cn12 [230′, 6-(1-(2,2-difluoroethyl)-4-(4-fluorophenyl)-1H-imidazol-5-yl)imidazo[1,2-a]pyridine-3-carboxamide] | 1.7
3 | NC(=O)c1cnc2ccc(-c3c(-c4ccc(F)c(F)c4)ncn3CC(F)F)cn12 [232′, 6-(1-(2,2-difluoroethyl)-4-(3,4-difluorophenyl)-1H-imidazol-5-yl)imidazo[1,2-a]pyridine-3-carboxamide] | 1.8
4 | NC(=O)c1cnc2ccc(-c3c(-c4ccc(F)cc4F)ncn3CC(F)F)cn12 [233′, 6-(1-(2,2-difluoroethyl)-4-(2,4-difluorophenyl)-1H-imidazol-5-yl)imidazo[1,2-a]pyridine-3-carboxamide] | 1
5 | NC(=O)c1cnc2ccc(-c3c(-c4cc(Cl)ccc4F)ncn3CC(F)F)cn12 [234′, 6-(4-(5-chloro-2-fluorophenyl)-1-(2,2-difluoroethyl)-1H-imidazol-5-yl)imidazo[1,2-a]pyridine-3-carboxamide] | 1.1
6 | N#Cc1cnc2ccc(-c3c(-c4ccccc4)ncn3CC(F)F)nn12 [237′, 6-(1-(2,2-difluoroethyl)-4-phenyl-1H-imidazol-5-yl)imidazo[1,2-b]pyridazine-3-carbonitrile] | 2.9
7 | N#Cc1cnc2ccc(-c3c(-c4cc(Cl)cc(Cl)c4)ncn3CC(F)F)nn12 [238′, 6-(4-(3,5-dichlorophenyl)-1-(2,2-difluoroethyl)-1H-imidazol-5-yl)imidazo[1,2-b]pyridazine-3-carbonitrile] | 39.7
8 | N#Cc1cnc2ccc(-c3c(-c4cccc(N)c4)ncn3CC(F)F)nn12 [240′, 6-(4-(3-aminophenyl)-1-(2,2-difluoroethyl)-1H-imidazol-5-yl)imidazo[1,2-b]pyridazine-3-carbonitrile] | 14.3
9 | Cc1ccc(-c2ncn(CC(F)F)c2-c2ccc3ncc(C#N)n3n2)cc1 [241′, 6-(1-(2,2-difluoroethyl)-4-(p-tolyl)-1H-imidazol-5-yl)imidazo[1,2-b]pyridazine-3-carbonitrile] | 173
10 | COc1ccc(-c2ncn(CC(F)F)c2-c2ccc3ncc(C#N)n3n2)cc1 [242′, 6-(1-(2,2-difluoroethyl)-4-(4-methoxyphenyl)-1H-imidazol-5-yl)imidazo[1,2-b]pyridazine-3-carbonitrile] | 5
11 | N#Cc1cnc2ccc(-c3c(-c4ccc5c(c4)OCO5)ncn3CC(F)F)nn12 [247′, 6-(4-(benzo[d][1,3]dioxol-5-yl)-1-(2,2-difluoroethyl)-1H-imidazol-5-yl)imidazo[1,2-b]pyridazine-3-carbonitrile] | 14.3
12 | N#Cc1cnc2ccc(-c3c(-c4ccccc4O)ncn3CC(F)F)nn12 [248′, 6-(1-(2,2-difluoroethyl)-4-(2-hydroxyphenyl)-1H-imidazol-5-yl)imidazo[1,2-b]pyridazine-3-carbonitrile] | 0.7
13 | N#Cc1cnc2ccc(-c3c(-c4cccc(O)c4)ncn3CC(F)F)nn12 [249′, 6-(1-(2,2-difluoroethyl)-4-(3-hydroxyphenyl)-1H-imidazol-5-yl)imidazo[1,2-b]pyridazine-3-carbonitrile] | 2.2
14 | N#Cc1cnc2ccc(-c3c(-c4ccc(O)cc4)ncn3CC(F)F)nn12 [250′, 6-(1-(2,2-difluoroethyl)-4-(4-hydroxyphenyl)-1H-imidazol-5-yl)imidazo[1,2-b]pyridazine-3-carbonitrile] | 136
15 | N#Cc1cnc2ccc(-c3c(-c4ccccc4C(N)=O)ncn3CC(F)F)nn12 [251′, 2-(5-(3-cyanoimidazo[1,2-b]pyridazin-6-yl)-1-(2,2-difluoroethyl)-1H-imidazol-4-yl)benzamide] | 73.5
16 | N#Cc1cnc2ccc(-c3c(-c4ccccc4CO)ncn3CC(F)F)nn12 [253′, 6-(1-(2,2-difluoroethyl)-4-(2-(hydroxymethyl)phenyl)-1H-imidazol-5-yl)imidazo[1,2-b]pyridazine-3-carbonitrile] | 7
17 | N#Cc1cnc2ccc(-c3c(-c4cccc(C(N)=O)c4)ncn3CC(F)F)nn12 [255′, 3-(5-(3-cyanoimidazo[1,2-b]pyridazin-6-yl)-1-(2,2-difluoroethyl)-1H-imidazol-4-yl)benzamide] | 867
18 | N#Cc1cnc2ccc(-c3c(-c4cccc(CO)c4)ncn3CC(F)F)nn12 [256′, 6-(1-(2,2-difluoroethyl)-4-(3-(hydroxymethyl)phenyl)-1H-imidazol-5-yl)imidazo[1,2-b]pyridazine-3-carbonitrile] | 5
19 | N#Cc1ccc(-c2ncn(CC(F)F)c2-c2ccc3ncc(C#N)n3n2)cc1 [258′, 6-(4-(4-cyanophenyl)-1-(2,2-difluoroethyl)-1H-imidazol-5-yl)imidazo[1,2-b]pyridazine-3-carbonitrile] | 356
20 | COc1cc(-c2ncn(CC(F)F)c2-c2ccc3ncc(C#N)n3n2)ccc1F [262′, 6-(1-(2,2-difluoroethyl)-4-(4-fluoro-3-methoxyphenyl)-1H-imidazol-5-yl)imidazo[1,2-b]pyridazine-3-carbonitrile] | 5.2
21 | N#Cc1cnc2ccc(-c3c(-c4ccc(N)cc4)ncn3CC(F)F)nn12 [264′, 6-(4-(4-aminophenyl)-1-(2,2-difluoroethyl)-1H-imidazol-5-yl)imidazo[1,2-b]pyridazine-3-carbonitrile] | 516
22 | N#Cc1cc(-c2ncn(CC(F)F)c2-c2ccc3ncc(C#N)n3n2)ccc1F [266′, 6-(4-(3-cyano-4-fluorophenyl)-1-(2,2-difluoroethyl)-1H-imidazol-5-yl)imidazo[1,2-b]pyridazine-3-carbonitrile] | 7.9
23 | N#CCCn1cnc(-c2ccc(F)cc2)c1-c1ccc2ncc(C#N)n2n1 [268′, 6-(1-(2-cyanoethyl)-4-(4-fluorophenyl)-1H-imidazol-5-yl)imidazo[1,2-b]pyridazine-3-carbonitrile] | 19
24 | OCc1cnc2ccc(-c3c(-c4ccc(F)cc4)ncn3CC(F)F)cn12 [274D′, (6-(1-(2,2-difluoroethyl)-4-(4-fluorophenyl)-1H-imidazol-5-yl)imidazo[1,2-a]pyridin-3-yl)methanol] | 92.6
25 | N#Cc1cnc2ccc(-c3c(-c4ccc(F)cc4)nc4n3CCC4)cn12 [283B′, 6-(2-(4-fluorophenyl)-6,7-dihydro-5H-pyrrolo[1,2-a]imidazol-3-yl)imidazo[1,2-a]pyridine-3-carbonitrile] | 13.8
26 | Nc1cnc2ccc(-c3c(-c4ccc(F)cc4)ncn3CC(F)F)cn12 [284D′, 6-(1-(2,2-difluoroethyl)-4-(4-fluorophenyl)-1H-imidazol-5-yl)imidazo[1,2-a]pyridin-3-amine] | 1.2
27 | Cn1cnc(-c2ccc(F)c(F)c2)c1-c1ccc2cn[nH]c2c1 [Compound 65, 6-(4-(3,4-Difluorophenyl)-1-methyl-1H-imidazol-5-yl)-1H-indazole] | 63.2
28 | N#Cc1cnc2ccc(-c3c(-c4ccc(F)cc4)ncn3[C@H]3C[C@@H](O)C3)nn12 [Example 2′] | 2.3
29 | CC[C@@H](CO)n1cnc(-c2ccc(F)cc2)c1-c1ccc2ncc(C#N)n2n1 [Example 6′, (S)-6-(4-(4-fluorophenyl)-1-(1-hydroxybutan-2-yl)-1H-imidazol-5-yl)imidazo[1,2-b]pyridazine-3-carbonitrile] | 5
